Tests used:
[1] = molecular target: T1, human NOD2 (Homo sapiens, UniProt Q9HC29); test: HEK-Blue NOD2 NF-κB SEAP reporter assay (NOD2 agonistic activity); type: cell-based
T1 construct: host or cells: HEK-Blue NOD2 cells (derived from HEK293)
Experimental: The synthesized desmuramylpeptides were evaluated for their dose-dependent NOD2 activity using the commercially available HEK-Blue NOD2 reporter cell line. This cell line is derived from HEK293 cells by cotransfection of human NOD2 and an NF-κB-inducible secreted embryonic alkaline phosphatase (SEAP). Activation of NOD2 and subsequently of NF-κB leads to the expression and secretion of SEAP, the level of which can be quantified colorimetrically. […]
two passages, 200 µg/mL Zeocin (Invivogen) was added to the medium every other passage to maintain selection pressure. The cells were incubated in a humidified atmosphere at 37 °C and 5% CO 2. […]
Aldrich), and 100 µg/mL streptomycin (Sigma -Aldrich).
The tested compounds were dissolved in DMSO and further di luted in culture medium to the desired final concentrations, such that the final DMSO concentration never exceeded 0.1%. […]
4.6 NOD1/NOD2-NF-kB reporter assay
HEK-Blue NOD2 or NOD1 cells were seeded (25,000 cells/well) in 96 -well plates in 100 µL HEK-Blue detection medium (Invivogen, San Diego, CA, USA) and treated with compounds ( 2 µM for fixed […]
the corresponding vehicle (0.1% DMSO). After 18 h of incubation (37 °C, 5% CO2), secreted embryonic alkaline phosphatase (SEAP) activity was determined spectrophotometrically as absorbance at 630 nm (BioTek Synergy microplate reader; Winooski, VT, USA). EC50 values were calculated using Prism software (version 9; GraphPad Software, CA, USA). The experiments were run in duplicates and repeated as at least three independent biological replicates. […]

[2] = system: PBMCs; test: Cytokine release from peripheral blood mononuclear cells; type: cell-based; conditions: human PBMCs
Text: Encouraged by the potent NOD2 activity of 40, we preliminarily evaluated its immunostimulatory potential in human primary peripheral blood mononuclear cells (PBMCs). Specifically, we first investigated the ability of 40 to induce cytokine production in PBMCs. While activation of NOD2 alone is sufficient to elicit cytokine responses, these responses are usually of low intensity. However, NOD2 agonists can act in synergy with ligands of other innate immune receptors and proinflammatory cytokines to induce considerably stronger responses. We were particularly intrigued by the synergistic interactions between NOD2, TLR4, and IFN-γ. The synergy between NOD2 agonists and TLR4 agonists in terms of cytokine secretion, including IFN-γ, is well-established.[29],[30] Similarly, IFN-γ has previously been reported to augment the MDP-mediated activation and cytokine production by dendritic cells and macrophages.[31],[32]
Figure 2 Synergistic effects of 40 with LPS and IFN-γ on induction of cytokine production from PBMCs. Cytokine concentrations were measured after 18 h of stimulation with NOD2 agonists (1 μM) in the presence or absence of LPS (10 ng/mL) and IFN-γ (200 U/mL) or the corresponding vehicle (0.1% DMSO; NT). Data are expressed as mean ± SEM of three independent experiments. Statistical significance was determined by one-way ANOVA followed by Bonferroni’s multiple-comparisons test; *, p < 0.05, **, p < 0.01, ***, p < 0.001 versus vehicle-treated control; ##, p < 0.01, ###, p < 0.001 versus 40 or LPS alone.
Figure S5. The effect of 40 on the production of cytokines from human PBMCs is NOD2 -dependent. PBMCs were pre-incubated for 1 h in the presence or absence of the NOD2 antagonist SG84 (10 µM), before the addition of 40 (1 µM). Cytokine concentrations in supernatants were measured after 18 h stimulation.
Data are expressed as mean s ± SEM of 3 independent experiments. Statistical significance was determined by one-way ANOVA followed by Bonferroni’s multiple comparisons test; **, p < 0.01, ***, p < 0.001. […]
4.9 Cytokine release from peripheral blood mononuclear cells
Peripheral blood mononuclear cells were seeded ( 500,000 cells/well) in 24-well plates in 500 µL growth medium and treated with MDP (1 µM), 2 (1 µM), or 40 (1 µM), in the presence or absence of LPS (10 ng/mL) or IFN-γ (200 U/mL), or the corresponding vehicle (0.1% DMSO). In some wells, PBMCs were pre-treated for 1 h with the NOD2 antagonist SG84 (10 µM), before the addition of 40 (1 µM). Cell-free supernatants were collected after 18 h of incubation (37 °C, 5% CO2) and stored at -80 °C until tested.
Cytokine production was determined with BD Cytometric Bead Array human inflammatory cytokines kit (BD Bioscience) on an Attune NxT flow cytometer (Thermo Fisher Scientific, Waltham, MA, USA). Standard curves were generated using recombinant cytokines contained in the kit. The data were analyzed using the FlowJo (Tree Star, Inc., Ashland, OR, USA) and Prism (GraphPad, San Diego, CA, USA) software.

T1 sequence (Q9HC29 whole entry): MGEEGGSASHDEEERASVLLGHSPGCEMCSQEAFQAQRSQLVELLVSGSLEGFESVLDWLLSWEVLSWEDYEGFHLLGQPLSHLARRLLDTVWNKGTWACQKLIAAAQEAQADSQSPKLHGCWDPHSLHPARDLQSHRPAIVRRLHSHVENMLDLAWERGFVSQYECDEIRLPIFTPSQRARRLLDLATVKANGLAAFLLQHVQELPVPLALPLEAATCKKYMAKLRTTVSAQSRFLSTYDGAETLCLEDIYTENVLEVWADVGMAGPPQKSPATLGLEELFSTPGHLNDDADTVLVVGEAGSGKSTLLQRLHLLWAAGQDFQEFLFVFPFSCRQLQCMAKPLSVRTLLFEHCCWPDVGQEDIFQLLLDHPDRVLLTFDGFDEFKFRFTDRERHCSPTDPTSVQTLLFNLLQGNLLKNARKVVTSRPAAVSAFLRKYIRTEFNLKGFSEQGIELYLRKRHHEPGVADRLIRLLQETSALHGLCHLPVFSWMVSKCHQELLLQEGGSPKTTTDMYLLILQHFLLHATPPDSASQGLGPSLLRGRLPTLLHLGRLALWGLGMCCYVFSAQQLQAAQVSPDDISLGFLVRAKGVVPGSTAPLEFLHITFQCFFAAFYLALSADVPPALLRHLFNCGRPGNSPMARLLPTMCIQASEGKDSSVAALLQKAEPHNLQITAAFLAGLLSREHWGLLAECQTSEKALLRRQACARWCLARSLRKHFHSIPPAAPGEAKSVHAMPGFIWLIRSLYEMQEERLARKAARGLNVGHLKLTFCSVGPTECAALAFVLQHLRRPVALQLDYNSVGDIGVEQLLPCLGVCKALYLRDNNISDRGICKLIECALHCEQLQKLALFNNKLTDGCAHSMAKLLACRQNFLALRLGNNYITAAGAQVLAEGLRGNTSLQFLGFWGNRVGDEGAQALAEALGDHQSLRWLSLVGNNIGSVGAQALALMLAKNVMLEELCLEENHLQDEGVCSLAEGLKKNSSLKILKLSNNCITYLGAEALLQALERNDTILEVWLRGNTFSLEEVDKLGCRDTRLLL

CCOC(=O)CC[C@@H](NC(=O)[C@@H](NC(=O)CNC(=O)/C=C/c1ccc(OC(=O)CC23CC4CC(CC(C4)C2)C3)c(OC)c1)C(C)C)C(=O)OCC [Compound 40]
EC50 ([1]; HEK-Blue NOD2 cells, 18 h, means ± SEMs of at least three independent experiments, 8 or 16 concentrations (0.1 nM to 20 μM)): 4.5 ± 1.1 nM
improvement of activity relative to 1 ([1]; NOD2 EC50 versus compound 1): 20 factor
production of IL-1β, IL-6 and TNF-α in combination with IFN-γ ([2]; 1 μM + IFN-γ 200 U/mL, 18 h): synergistically increased
production of IL-8 in combination with IFN-γ ([2]; 1 μM + IFN-γ 200 U/mL, 18 h): no apparent effect
production of IL-1β, IL-6 and TNF-α in combination with LPS ([2]; 1 μM + LPS 10 ng/mL, 18 h): superadditive manner
NOD2 dependence of cytokine production ([2]; 40 1 µM, pretreatment with NOD2 antagonist SG84 10 µM): entirely NOD2-dependent
production of IL-1β, IL-6, IL-8 and TNF-α, stimulant alone ([2]; 18 h, NOD2 agonists 1 μM, LPS 10 ng/mL, IFN-γ 200 U/mL): modest production

— PMC9377006, “Discovery of Desmuramylpeptide NOD2 Agonists with Single-Digit Nanomolar Potency” (ACS Medicinal Chemistry Letters, 2022)
